TGI data for 16 molecules are collected here from PubChem BioAssay (NCI).

SMILES strings stand for the structures.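 Tested at 5 concentrations; 48 h exposure; 96-well plates; endpoints linearly interpolated, else capped at highest concentration. TGI: concentration producing complete growth inhibition.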

Some test systems named below: 786-0 renal; BT-549 breast; CCRF-CEM leukemia; DU-145 prostate; HCC-2998 colon; HS 578T breast; MCF7 breast; MDA-MB-231 breast; MDA-N; SF-295 CNS; SK-MEL-5 melanoma; SN12C renal; SNB-19 CNS; SW-620 colon; NCI-H226 lung.
Holding throughout (experiment): inhibition of tumour cell growth, NCI panel, 48 h

For the molecule `Cc1c(-c2ccc(O)cc2)n(CCCCCCNCCOC(=O)NCCCc2ccc(N(CCCl)CCCl)cc2)c2ccc(O)cc12`, the TGI in the experiment on 786-0 renal was 2.97 µM; in the experiment with BT-549 breast, 26.7 µM; in the experiment with CCRF-CEM leukemia, 6.67 µM; with DU-145 prostate, 3.97 µM; in the experiment on HCC-2998 colon, 3.52 µM; in the experiment on HS 578T breast, 7.49 µM. The TGI in the experiment with MCF7 breast amounted to 2.23 µM; in the experiment with MDA-MB-231 breast it was 3.38 µM; in the experiment with MDA-N, 3.47 µM; in the experiment on SF-295 CNS, 6.85 µM; in the experiment on SK-MEL-5 melanoma it was 4.06 µM; in the experiment on SN12C renal it was 6.22 µM. For the same molecule, the TGI with SNB-19 CNS was 28.1 µM; with SW-620 colon, 5.37 µM.
On to `CSC1=C(C#N)C(=S)N=C(N)C1C(=O)Nc1ccc(C)cc1` (stereo unspecified), for which the TGI in the experiment with 786-0 renal, in the experiment with BT-549 breast, in the experiment with CCRF-CEM leukemia, in the experiment with DU-145 prostate, in the experiment with HCC-2998 colon and in the experiment on HS 578T breast was greater than 100 µM each time. Further, the TGI in the experiment on MDA-MB-231 breast, with MDA-N, in the experiment with NCI-H226 lung, in the experiment with SK-MEL-5 melanoma, in the experiment on SN12C renal and in the experiment with SNB-19 CNS was greater than 100 µM each time. In the experiment on SW-620 colon, the TGI was greater than 100 µM.
Take `CN(C)CCCN1c2ccc([N+](=O)[O-])cc2CCc2cccc([N+](=O)[O-])c21`: the TGI is 26.5 µM in the experiment with 786-0 renal; 46.4 µM with CCRF-CEM leukemia; 31.2 µM in the experiment with DU-145 prostate; 26.3 µM in the experiment on HCC-2998 colon; 31.7 µM in the experiment with HS 578T breast; 26.1 µM in the experiment with MDA-MB-231 breast. In addition, the TGI in the experiment on MDA-N amounted to 29.2 µM; with NCI-H226 lung, 29.3 µM; with SF-295 CNS, 28.2 µM; with SK-MEL-5 melanoma, 30.2 µM; in the experiment on SN12C renal it was 28.6 µM; with SNB-19 CNS, 36.1 µM. This molecule also displayed a TGI in the experiment with SW-620 colon of 39.5 µM.
For the molecule `CCN(CC)c1ccc2cc(C(N)=O)c(=N)oc2c1`, the TGI in the experiment with 786-0 renal was greater than 100 µM; with BT-549 breast, greater than 100 µM; in the experiment with CCRF-CEM leukemia, greater than 100 µM; in the experiment on DU-145 prostate it was greater than 100 µM; in the experiment with HCC-2998 colon, 57.2 µM; with HS 578T breast, 45.8 µM. For the same molecule, the TGI with MDA-MB-231 breast, with MDA-N, with NCI-H226 lung, in the experiment on SK-MEL-5 melanoma, with SN12C renal and in the experiment on SNB-19 CNS was greater than 100 µM throughout. Besides, the TGI with SW-620 colon was greater than 100 µM.
As for `COc1ccc(N2CN3OC(=O)N(c4ccc(OC)cc4)[C@@]3(c3ccccc3)C2)cc1`, the TGI in the experiment with 786-0 renal, in the experiment on BT-549 breast, in the experiment on DU-145 prostate, in the experiment with HCC-2998 colon, in the experiment with HS 578T breast and in the experiment on MCF7 breast was greater than 100 µM each time. Besides, the TGI was 99.6 µM in the experiment with MDA-MB-231 breast; 22.6 µM in the experiment with MDA-N; greater than 100 µM with NCI-H226 lung; 92.9 µM in the experiment on SF-295 CNS; 76.9 µM with SK-MEL-5 melanoma; greater than 100 µM in the experiment with SN12C renal. In addition, the TGI in the experiment on SNB-19 CNS and in the experiment with SW-620 colon was greater than 100 µM each time.
With `O=C1C=Cc2c(Br)sc(Br)c21`, the TGI in the experiment with 786-0 renal was greater than 100 µM; in the experiment on BT-549 breast, greater than 100 µM; with CCRF-CEM leukemia it was 11.3 µM; in the experiment with DU-145 prostate, greater than 100 µM; in the experiment on HCC-2998 colon, 29.2 µM; in the experiment on HS 578T breast it was greater than 100 µM. Besides, the TGI is greater than 100 µM with MCF7 breast; 52.4 µM in the experiment with MDA-MB-231 breast; greater than 100 µM with MDA-N; greater than 100 µM in the experiment on SF-295 CNS; greater than 100 µM with SK-MEL-5 melanoma; greater than 100 µM with SN12C renal. The TGI with SNB-19 CNS was greater than 100 µM; in the experiment with SW-620 colon it was 43.7 µM.
For `Cc1ccc(S(=O)(=O)NC(=O)NC(CC(N)=O)C(=O)O)cc1` (stereo unspecified), the TGI in the experiment on 786-0 renal, in the experiment with BT-549 breast, in the experiment on CCRF-CEM leukemia, in the experiment on DU-145 prostate, in the experiment with HS 578T breast and in the experiment on MCF7 breast was greater than 100 µM throughout. Further, the TGI in the experiment on MDA-MB-231 breast, in the experiment on MDA-N, in the experiment with SF-295 CNS, in the experiment on SK-MEL-5 melanoma, in the experiment with SN12C renal and with SNB-19 CNS was greater than 100 µM in each case. The same molecule yielded a TGI with SW-620 colon greater than 100 µM.
For the molecule `NC(CCCCCCCCCCP(=O)(O)O)C(=O)O` (stereo unspecified), the TGI in the experiment with CCRF-CEM leukemia, in the experiment on DU-145 prostate, in the experiment on HCC-2998 colon, in the experiment with HS 578T breast, in the experiment with MCF7 breast and in the experiment with MDA-MB-231 breast was greater than 100 µM each time. Also, the TGI in the experiment with MDA-N, with SF-295 CNS, in the experiment with SK-MEL-5 melanoma, in the experiment with SN12C renal, in the experiment with SNB-19 CNS and in the experiment on SW-620 colon was greater than 100 µM throughout.
Turning to `COc1cccc(-c2nc3ccccc3c(=O)[nH]2)c1`, the TGI with 786-0 renal was 28.1 µM; in the experiment on BT-549 breast, 61.8 µM; in the experiment with DU-145 prostate, greater than 100 µM; in the experiment with HCC-2998 colon, 54.3 µM; with HS 578T breast it was 47.9 µM; in the experiment on MCF7 breast, 43.1 µM. In addition, the TGI in the experiment with MDA-MB-231 breast came to 58.9 µM; with MDA-N, 36.9 µM; in the experiment with SF-295 CNS it was 88.9 µM; in the experiment on SK-MEL-5 melanoma, 65.8 µM; in the experiment with SN12C renal, 82.2 µM; in the experiment with SNB-19 CNS, 46.7 µM. This molecule displayed a TGI in the experiment with SW-620 colon greater than 100 µM.
With `CN(Cc1cnc2nc(N)nc(N)c2n1)c1ccc(C(=O)NCCS(=O)(=O)O)cc1`, the TGI in the experiment with 786-0 renal, in the experiment with BT-549 breast, with DU-145 prostate, in the experiment on HCC-2998 colon, in the experiment with HS 578T breast and in the experiment on MCF7 breast was greater than 100 µM throughout. Also, the TGI with MDA-MB-231 breast, in the experiment with MDA-N, in the experiment on NCI-H226 lung, with SF-295 CNS, in the experiment on SK-MEL-5 melanoma and in the experiment on SN12C renal was greater than 100 µM each time. Further, the TGI with SNB-19 CNS and with SW-620 colon was greater than 100 µM in each case.
Regarding `CN1Cc2ccccc2S(=O)(=O)n2cccc2C1=O`, the TGI in the experiment with 786-0 renal, in the experiment on BT-549 breast, in the experiment with CCRF-CEM leukemia, in the experiment with DU-145 prostate, in the experiment with HS 578T breast and in the experiment with MCF7 breast was greater than 100 µM in each case. Further, the TGI in the experiment on MDA-MB-231 breast, in the experiment on MDA-N, with SF-295 CNS, in the experiment on SK-MEL-5 melanoma, with SN12C renal and in the experiment with SW-620 colon was greater than 100 µM in each case.
Regarding `O=C(Nc1ccccc1)OCCN=C1c2ccccc2C(Br)C(Br)c2ccccc21` (stereo unspecified), the TGI with 786-0 renal was 8.18 µM; in the experiment with CCRF-CEM leukemia, 5.3 µM; in the experiment with DU-145 prostate, 16 µM; in the experiment with HCC-2998 colon, 20.8 µM; in the experiment on HS 578T breast it was 22 µM; with MCF7 breast, greater than 31.6 µM. In addition, the TGI with MDA-MB-231 breast is 20.6 µM; with MDA-N, 17.1 µM; in the experiment on NCI-H226 lung, 19.2 µM; in the experiment with SF-295 CNS, greater than 31.6 µM; in the experiment with SK-MEL-5 melanoma, 16.9 µM; with SN12C renal, 17.5 µM. The TGI was 27 µM with SNB-19 CNS and 16.3 µM with SW-620 colon.
`COC1(c2ccc(Cl)cc2)SC=C(C)n2c1noc2=O` (stereo unspecified): the TGI with 786-0 renal, in the experiment with BT-549 breast, in the experiment on CCRF-CEM leukemia, in the experiment on DU-145 prostate, with HCC-2998 colon and with HS 578T breast was greater than 100 µM each time. Besides, the TGI in the experiment on MCF7 breast, with MDA-N, in the experiment with SF-295 CNS, in the experiment on SK-MEL-5 melanoma, in the experiment with SN12C renal and in the experiment on SNB-19 CNS was greater than 100 µM in each case. For the same molecule, the TGI with SW-620 colon was greater than 100 µM.
In the case of `C/C=C/C(C#N)(/C=C/c1ccccc1)OP1(=O)OC(c2ccccc2)C(C)N1C` (stereo unspecified), the TGI in the experiment with 786-0 renal was 31.7 µM; with CCRF-CEM leukemia it was 28 µM; in the experiment on DU-145 prostate it was 90.1 µM; in the experiment on HCC-2998 colon, 27.5 µM; in the experiment with HS 578T breast it was 49.9 µM; in the experiment with MCF7 breast, 49.4 µM. The TGI with MDA-MB-231 breast stood at 34.9 µM; in the experiment with MDA-N it was 39 µM; with SF-295 CNS, 31 µM; in the experiment on SK-MEL-5 melanoma, 32.1 µM; in the experiment with SN12C renal, 35.5 µM; in the experiment with SNB-19 CNS it was 42.1 µM. Also, the TGI in the experiment with SW-620 colon was determined as 39.2 µM.
Regarding `C1=CC2(C=CC13O[C@H](C1CCCCC1)[C@@H](C1CCCCC1)O3)O[C@H](C1CCCCC1)[C@@H](C1CCCCC1)O2`, the TGI in the experiment with 786-0 renal, in the experiment with BT-549 breast, in the experiment on DU-145 prostate, with HS 578T breast, in the experiment on MCF7 breast and in the experiment on MDA-MB-231 breast was greater than 50 µM throughout. Besides, the TGI with MDA-N, in the experiment on NCI-H226 lung, in the experiment on SF-295 CNS, in the experiment with SK-MEL-5 melanoma, in the experiment on SN12C renal and in the experiment with SNB-19 CNS was greater than 50 µM each time. Besides, the TGI in the experiment on SW-620 colon was greater than 50 µM.
Take `CCCCS(=O)(=O)CCC(N)P(=O)(O)O` (stereo unspecified): the TGI in the experiment with 786-0 renal, in the experiment with BT-549 breast, in the experiment with CCRF-CEM leukemia, in the experiment with DU-145 prostate, with HS 578T breast and in the experiment on MCF7 breast was greater than 100 µM throughout. Moreover, the TGI in the experiment on MDA-N, with NCI-H226 lung, in the experiment with SF-295 CNS, with SK-MEL-5 melanoma, in the experiment with SN12C renal and in the experiment on SNB-19 CNS was greater than 100 µM in each case. In the experiment on SW-620 colon, the TGI was greater than 100 µM.
